Calls of active or inactive are those of the source. No cut-off for these calls is given here. Where only a bound is given, the exact number is not on record here.

The target in series [1] is Tyrosine-protein kinase BTK (Homo sapiens, UniProt Q06187). Put plainly: Inhibition of full length recombinant human N-terminal His tagged […] expressed in baculovirus infected Sf9 insect cells using poly (Glu,Tyr)4:1 as substrate pretreated for 60 mins followed by substrate addition after 1 hr by ADP-Glo luminescence assay. In general terms: In ADP-Glo the light output rises with the ADP produced.
Sequence of Tyrosine-protein kinase BTK (Q06187 whole entry): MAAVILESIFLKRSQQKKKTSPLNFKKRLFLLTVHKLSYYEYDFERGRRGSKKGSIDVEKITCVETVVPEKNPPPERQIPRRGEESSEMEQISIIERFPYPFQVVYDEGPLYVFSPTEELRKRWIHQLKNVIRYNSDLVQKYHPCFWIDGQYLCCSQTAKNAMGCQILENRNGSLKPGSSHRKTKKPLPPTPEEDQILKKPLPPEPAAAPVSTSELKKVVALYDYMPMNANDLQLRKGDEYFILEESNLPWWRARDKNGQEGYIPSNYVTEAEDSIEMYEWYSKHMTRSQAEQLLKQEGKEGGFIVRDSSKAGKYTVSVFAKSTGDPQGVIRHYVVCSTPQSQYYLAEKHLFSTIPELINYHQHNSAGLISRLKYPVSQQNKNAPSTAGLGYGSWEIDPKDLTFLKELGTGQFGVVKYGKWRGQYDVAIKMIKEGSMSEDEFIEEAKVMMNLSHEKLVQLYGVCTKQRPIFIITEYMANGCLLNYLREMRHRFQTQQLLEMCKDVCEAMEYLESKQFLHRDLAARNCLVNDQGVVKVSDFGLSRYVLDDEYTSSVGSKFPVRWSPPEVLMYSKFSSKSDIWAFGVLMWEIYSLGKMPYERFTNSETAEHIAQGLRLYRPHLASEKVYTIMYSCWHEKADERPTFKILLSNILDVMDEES

Series [2] deals with T1, Tyrosine-protein kinase JAK3 (Homo sapiens, UniProt P52333).
T1 sequence (P52333 whole entry): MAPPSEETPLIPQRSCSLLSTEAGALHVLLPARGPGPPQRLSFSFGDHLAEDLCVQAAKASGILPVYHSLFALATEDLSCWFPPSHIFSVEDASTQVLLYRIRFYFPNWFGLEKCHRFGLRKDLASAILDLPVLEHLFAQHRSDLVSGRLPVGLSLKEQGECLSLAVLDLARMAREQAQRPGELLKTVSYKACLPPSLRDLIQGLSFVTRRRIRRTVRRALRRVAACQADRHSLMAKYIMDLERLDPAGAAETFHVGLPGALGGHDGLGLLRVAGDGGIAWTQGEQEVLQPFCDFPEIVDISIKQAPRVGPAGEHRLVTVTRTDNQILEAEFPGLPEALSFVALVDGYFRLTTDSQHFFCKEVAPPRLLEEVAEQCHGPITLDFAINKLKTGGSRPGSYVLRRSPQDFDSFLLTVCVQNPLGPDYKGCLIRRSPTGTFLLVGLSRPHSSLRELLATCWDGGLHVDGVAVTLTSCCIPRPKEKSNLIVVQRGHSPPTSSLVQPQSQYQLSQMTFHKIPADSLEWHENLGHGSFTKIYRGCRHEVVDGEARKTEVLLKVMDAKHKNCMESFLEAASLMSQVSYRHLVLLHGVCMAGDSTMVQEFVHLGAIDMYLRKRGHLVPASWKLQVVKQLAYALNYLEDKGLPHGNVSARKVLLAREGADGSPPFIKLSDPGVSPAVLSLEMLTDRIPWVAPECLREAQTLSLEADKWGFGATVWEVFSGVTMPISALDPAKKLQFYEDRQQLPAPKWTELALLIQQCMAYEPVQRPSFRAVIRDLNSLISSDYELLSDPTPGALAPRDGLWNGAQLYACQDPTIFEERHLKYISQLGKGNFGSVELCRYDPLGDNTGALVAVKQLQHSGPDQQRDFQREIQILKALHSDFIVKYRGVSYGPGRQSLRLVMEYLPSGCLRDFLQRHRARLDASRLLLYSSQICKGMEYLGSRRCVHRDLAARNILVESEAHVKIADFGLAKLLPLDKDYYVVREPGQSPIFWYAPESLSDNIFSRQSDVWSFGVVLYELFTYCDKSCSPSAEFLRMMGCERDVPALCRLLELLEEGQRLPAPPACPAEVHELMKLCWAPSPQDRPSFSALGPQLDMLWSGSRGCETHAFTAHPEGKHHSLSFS
Put plainly: Inhibition of recombinant human N-terminal GST-tagged JAK3 (781 to end residues) expressed in baculovirus infected Sf9 insect cells using poly (Glu,Tyr)4:1 as substrate pretreated for 60 mins followed by substrate addition after 1 hr by ADP-Glo luminescence assay.

Series [3] deals with Epidermal growth factor receptor (Homo sapiens, UniProt P00533). Nature of the series: Inhibition of recombinant human N-terminal GST-tagged wild-type EGFR (695 to end residues) expressed in baculovirus infected Sf9 insect cells using poly (Glu,Tyr)4:1 as substrate pretreated for 60 mins followed by substrate addition after 1 hr by ADP-Glo luminescence assay.
Sequence of Epidermal growth factor receptor (P00533 whole entry): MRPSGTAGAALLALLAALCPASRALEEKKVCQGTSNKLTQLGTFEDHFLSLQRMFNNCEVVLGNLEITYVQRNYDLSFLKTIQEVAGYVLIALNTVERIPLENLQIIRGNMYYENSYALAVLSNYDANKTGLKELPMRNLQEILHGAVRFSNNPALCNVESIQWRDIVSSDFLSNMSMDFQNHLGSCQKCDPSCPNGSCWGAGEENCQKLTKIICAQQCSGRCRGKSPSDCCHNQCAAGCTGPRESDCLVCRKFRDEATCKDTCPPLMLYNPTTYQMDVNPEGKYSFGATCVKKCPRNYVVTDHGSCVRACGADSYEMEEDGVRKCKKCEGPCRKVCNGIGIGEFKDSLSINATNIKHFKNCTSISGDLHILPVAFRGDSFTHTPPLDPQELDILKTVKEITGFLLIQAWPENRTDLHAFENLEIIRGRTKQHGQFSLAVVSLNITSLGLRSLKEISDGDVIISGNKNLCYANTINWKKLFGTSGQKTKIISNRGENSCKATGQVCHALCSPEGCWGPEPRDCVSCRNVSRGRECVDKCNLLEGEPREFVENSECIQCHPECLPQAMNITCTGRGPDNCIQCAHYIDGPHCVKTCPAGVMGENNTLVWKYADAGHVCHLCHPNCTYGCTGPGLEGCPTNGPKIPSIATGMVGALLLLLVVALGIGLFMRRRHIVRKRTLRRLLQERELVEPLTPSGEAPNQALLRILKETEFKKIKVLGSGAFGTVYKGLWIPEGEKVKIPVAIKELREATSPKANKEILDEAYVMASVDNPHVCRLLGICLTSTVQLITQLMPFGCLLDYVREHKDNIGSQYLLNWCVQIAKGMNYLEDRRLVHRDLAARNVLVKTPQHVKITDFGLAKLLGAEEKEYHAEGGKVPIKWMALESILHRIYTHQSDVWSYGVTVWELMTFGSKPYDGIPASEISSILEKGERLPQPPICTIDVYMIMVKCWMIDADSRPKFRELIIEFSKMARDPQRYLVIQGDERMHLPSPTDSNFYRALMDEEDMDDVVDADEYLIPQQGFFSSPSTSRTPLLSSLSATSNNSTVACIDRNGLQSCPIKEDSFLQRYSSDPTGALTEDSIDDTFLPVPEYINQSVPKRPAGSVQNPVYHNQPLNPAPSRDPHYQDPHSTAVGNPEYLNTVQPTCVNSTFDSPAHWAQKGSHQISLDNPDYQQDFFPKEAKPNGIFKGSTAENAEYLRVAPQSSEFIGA
The next series concerns SU-DHL-2. Nature of the series: Growth inhibition of human SU-DHL-2 cells. The series is classed as functional.
The next series relates to MV4-11. Nature of the series: Growth inhibition of human MV411 cells. The class given is functional.
The subject of series [4] is U2932. Put plainly: Growth inhibition of human U2932 cells. The class given is functional.
A further series relates to Ramos. Put plainly: Growth inhibition of human Ramos cells. The class given is functional.
For another series, the system named is OCI-AML-3. Put plainly: Growth inhibition of human OCI-AML3 cells. The series is classed as functional.
Series [5] has as its system Pfeiffer. Put plainly: Growth inhibition of human Pfeiffer cells. The series is classed as functional.
The test system of the next series is U-937. Nature of the series: Growth inhibition of human U937 cells. The series is classed as functional.
In another series the test system is NB-4. Nature of the series: Growth inhibition of human NB4 cells. The class given is functional.
The subject of another series is SKM-1. Put plainly: Growth inhibition of human SKM1 cells. The series is classed as functional.
Series [6] can be described thus: Growth inhibition of human M07e cells. The series is classed as functional.
A further series relates to PBMC. Put plainly: Cytotoxicity against PBMC (unknwon origin). The series is classed as cell-based.
Series [7] relates to Pfeiffer. Nature of the series: Cell cycle arrest in human Pfeiffer cells assessed as increase in accumulation at G0/G1 phase at 10 uM after 48 hrs by propidium iodide/RNase staining based flow cytometric method. The series is classed as functional. In general terms: In flow cytometry, cells or beads pass a laser one at a time.
Series [8] relates to U2932. Put plainly: Cell cycle arrest in human U2932 cells assessed as increase in accumulation at G0/G1 phase at 10 uM after 48 hrs by propidium iodide/RNase staining based flow cytometric method. The class given is functional.

What is called IC50 is the midpoint of a concentration-inhibition curve. On to `C=CC(=O)Nc1cc(Nc2cc(-c3cccc(NC(=O)c4cccc(OC)c4)c3C)cn(C)c2=O)ccc1C(=O)N1CCOCC1`, for which the IC50 in series [1] came to 1190 nM.
In the case of `Cc1c(NC(=O)c2ccc(C(C)(C)C)cc2)cccc1-c1cc(Nc2ccc(C(=O)N3CCOCC3)c(NC(=O)CCl)c2)c(=O)n(C)c1`, in series [1], the IC50 is 63 nM.
With `C=CC(=O)Nc1cc(Nc2cc(-c3cccc(NC(=O)c4ccc(C(F)(F)F)cc4)c3C)cn(C)c2=O)ccc1C(=O)N1CCOCC1`, the IC50 in [1] was determined as 76 nM.
Take `C=CC(=O)Nc1cc(Nc2cc(-c3cccc(NC(=O)c4ccc5c(c4)CCCC5)c3C)cn(C)c2=O)ccc1C(=O)N1CCOCC1`: the IC50 in series [1] was 57 nM.
Still for that read-out and setting: the figure for `C=CC(=O)Nc1cc(Nc2cc(-c3cccc(NC(=O)c4ccc(C)c(C(F)(F)F)c4)c3C)cn(C)c2=O)ccc1C(=O)N1CCOCC1` is 1260 nM; for `C=CC(=O)Nc1cccc(Nc2cc(-c3cccc(NC(=O)c4ccc(C(C)(C)C)cc4)c3C)cn(C)c2=O)c1` it is more than 10000 nM; for `C=CC(=O)Nc1cc(Nc2cc(-c3cccc(NC(=O)c4ccc(N(C)C)cc4)c3C)cn(C)c2=O)ccc1C(=O)N1CCCC(O)C1` (stereo unspecified) it is 244 nM.
Turning to `C=CC(=O)Nc1cccc(Nc2ncc(NC(=O)c3cc(NC(=O)c4cccc(C(F)(F)F)c4)ccc3C)cn2)c1`, the IC50 in series [2] was found to be 1700 nM; in [3] it was 72 nM.
Consider `C=CC(=O)Nc1cc(Nc2cc(-c3cccc(NC(=O)c4ccc(N(C)C)cc4)c3C)cn(C)c2=O)ccc1C(=O)N(CCOCC)CCOCC`, for which, in series [1], the IC50 came out at 3190 nM.
Still for that read-out and setting: the figure for `C=CC(=O)Nc1cc(Nc2cc(-c3cccc(NC(=O)c4ccc(C(C)(C)C)cc4)c3C)cn(C)c2=O)ccc1C(=O)N1CCCC(O)C1` (stereo unspecified) is 21 nM; for `C=CC(=O)NC1CCN(c2cc(-c3cccc(NC(=O)c4ccc(N(C)C)cc4)c3C)cn(C)c2=O)CC1` it is more than 10000 nM; for `C=CC(=O)Nc1cc(Nc2cc(-c3cccc(NC(=O)c4ccc(N5CCCC5)cc4)c3C)cn(C)c2=O)ccc1C(=O)N1CCOCC1` it is 86 nM.
The same measure, in the same setting: the figure for `C=CC(=O)Nc1cc(Nc2cc(-c3cccc(NC(=O)c4ccc(N(C)C)cc4)c3C)cn(C)c2=O)ccc1C(=O)N1CCC(OC)CC1` is 596 nM; for `C=CC(=O)Nc1cc(Nc2cc(-c3cccc(NC(=O)c4cc(OC)c(OC)c(OC)c4)c3C)cn(C)c2=O)ccc1C(=O)N1CCOCC1` it is 1430 nM; for `C=CC(=O)Nc1cc(Nc2cc(-c3cccc(NC(=O)c4ccc5c(c4)OCCO5)c3C)cn(C)c2=O)ccc1C(=O)N1CCOCC1` it is 89 nM.
For `C=CC(=O)Nc1cc(Nc2cc(-c3cccc(NC(=O)c4ccccc4)c3C)cn(C)c2=O)ccc1C(=O)N1CCOCC1`, the IC50 in series [1] came out at 3740 nM.
Consider `C=CC(=O)Nc1cc(Nc2cc(-c3cccc(NC(=O)c4ccc(N(C)C)cc4)c3C)cn(C)c2=O)ccc1C(=O)N1CCC(O)CC1`, for which, in series [1], the IC50 came out at 187 nM.
For the compound `C=CC(=O)Nc1cccc(Nc2nc(Nc3ccc(Oc4ccnc(C(=O)NC)c4)cc3)ncc2F)c1`, the IC50 in series [2] is 1530 nM.
In the case of `C=CC(=O)Nc1cc(Nc2cc(-c3cccc(NC(=O)c4ccc(C(C)(C)C)cc4)c3C)cn(C)c2=O)ccc1C(=O)NC1CC1`, in [1], the IC50 amounted to 41 nM.
Take `C=CC(=O)Nc1cc(Nc2cc(-c3cccc(NC(=O)c4ccc(C)cc4)c3C)cn(C)c2=O)ccc1C(=O)N1CCOCC1`: in series [1], the IC50 came to 114 nM.
As for `C=CC(=O)Nc1cccc(Nc2nc(Nc3ccc(OCCOC)cc3)ncc2F)c1` [SPEBRUTINIB], the IC50 in [2] stood at 1750 nM; in series [3] it was 442 nM.
With `C=CC(=O)NC1CCCC(Nc2cc(-c3cccc(NC(=O)c4ccc(N(C)C)cc4)c3C)cn(C)c2=O)C1` (stereo unspecified), the IC50 in series [1] worked out at 2950 nM.
On the same count and under the same terms, to `C=CC(=O)Nc1cc(Nc2cc(-c3cccc(NC(=O)c4ccc(C(C)(C)C)cc4)c3C)cn(C)c2=O)ccc1C` belongs 365 nM.
Consider `C=CC(=O)N1CCC(Nc2cc(-c3cccc(NC(=O)c4ccc(N(C)C)cc4)c3C)cn(C)c2=O)CC1`, for which the IC50 in series [1] is more than 10000 nM.
Still for that read-out and setting: the figure for `C=CC(=O)Nc1cc(Nc2cc(-c3cccc(NC(=O)c4ccc5c(c4)OCO5)c3C)cn(C)c2=O)ccc1C(=O)N1CCOCC1` is 282 nM.
Broadly, the GI50 is the concentration at which growth is held to half of that of the control. High values mean lower sensitivity of the cells, low ones greater sensitivity of the cells. On to `C=CC(=O)N1CCC[C@@H](n2nc(-c3ccc(Oc4ccccc4)cc3)c3c(N)ncnc32)C1` [IBRUTINIB], for which the GI50 in the series with SU-DHL-2 was found to be 640 nM; with MV4-11, 250 nM; in the series with U2932 [4] it was 4400 nM; in the series on Ramos it was 3400 nM; with OCI-AML-3, 9200 nM; in the series on Pfeiffer [5], 1600 nM. In addition, the GI50 with U-937 amounted to 2900 nM; in the series on NB-4, 3000 nM; in the series on SKM-1 it was 3600 nM; in series [6] it was 590 nM. Further, the Activity entry with PBMC was “Non-Toxic”. Also, the outcome in the series with Pfeiffer [7] and in the series on U2932 [8] was Active.
Consider `C=CC(=O)Nc1cc(Nc2cc(-c3cccc(NC(=O)c4ccc(C(C)C)cc4)c3C)cn(C)c2=O)ccc1C(=O)N1CCOCC1`, for which, in [1], the IC50 was found to be 32 nM.
`C=CC(=O)Nc1cc(Nc2cc(-c3cccc(NC(=O)c4ccc(CC)cc4)c3C)cn(C)c2=O)ccc1C(=O)N1CCOCC1`: the IC50 in series [1] worked out at 210 nM.
Take `C=CC(=O)N1CCCC(Nc2cc(-c3cccc(NC(=O)c4ccc(N(C)C)cc4)c3C)cn(C)c2=O)C1` (stereo unspecified): in series [1], the IC50 is more than 10000 nM.
The same measure, in the same setting: the figure for `C=CC(=O)Nc1cc(Nc2cc(-c3cccc(NC(=O)c4ccc(C(C)(C)C)cc4)c3C)cn(C)c2=O)ccc1C(=O)N(C)C` is 34 nM.
Still for that read-out and setting: to `C=CC(=O)Nc1cc(Nc2cc(-c3cccc(NC(=O)c4ccc(OC)cc4)c3C)cn(C)c2=O)ccc1C(=O)N1CCOCC1` belongs 2610 nM.
Same read-out and setting: to `C=CC(=O)Nc1cc(Nc2cc(-c3cccc(NC(=O)c4ccc(C(C)(C)C)cc4)c3C)cn(C)c2=O)ccc1C(=O)N1CCN(C)CC1` belongs 127 nM; to `C=CC(=O)Nc1cc(Nc2cc(-c3cccc(NC(=O)c4ccc(C(C)(C)C)cc4)c3C)cn(C)c2=O)ccc1C(=O)N1CCN(C(=O)OC(C)(C)C)CC1`, 68 nM; to `C=CC(=O)Nc1cc(Nc2cc(-c3cccc(NC(=O)c4ccc(C(C)(C)C)cc4)c3C)cn(C)c2=O)ccc1C(=O)N1CCC(OC)CC1`, 65 nM.
`C=CC(=O)Nc1cc(Nc2cc(-c3cccc(NC(=O)c4cccc(C(F)(F)F)c4)c3C)cn(C)c2=O)ccc1C(=O)N1CCOCC1`: the IC50 in series [1] was more than 10000 nM.
The same measure, in the same setting: to `C=CC(=O)Nc1cc(Nc2cc(-c3cccc(NC(=O)c4ccc(N5CCOCC5)cc4)c3C)cn(C)c2=O)ccc1C(=O)N1CCOCC1` belongs 273 nM; to `C=CC(=O)Nc1cc(Nc2cc(-c3cccc(NC(=O)c4ccc(C(C)(C)C)cc4)c3C)cn(C)c2=O)ccc1C(=O)OC`, 197 nM; to `C=CC(=O)Nc1ccc(NC(=O)c2ccc(C(C)(C)C)cc2)c(C)c1-c1cc(Nc2ccc(C(=O)N3CCOCC3)cc2)c(=O)n(C)c1`, 1700 nM.
Take `C=CC(=O)N1CCc2ccc(-n3c(=O)ccc4cnc5ccc(-c6cnn(C)c6)cc5c43)cc21`: the half-maximal inhibitory concentration (IC50) in series [2] stood at 3340 nM; in [3], 874 nM.
Consider `C=CC(=O)Nc1cc(C(=O)N2CCOCC2)ccc1Nc1cc(-c2cccc(NC(=O)c3ccc(C(C)(C)C)cc3)c2C)cn(C)c1=O`, for which, in series [1], the IC50 was 231 nM.
For the compound `C=CC(=O)NC1CCCN(c2cc(-c3cccc(NC(=O)c4ccc(N(C)C)cc4)c3C)cn(C)c2=O)C1` (stereo unspecified), the IC50 in series [1] is more than 10000 nM.

(Values after ChEMBL document CHEMBL4024706 (Eur J Med Chem, 2017).)
